Tests used:
ABUTH = assay: Pre-emergence herbicidal effect, greenhouse pot test; assay type: in vivo, Abutilon theophrasti; settings: 320 g/ha, scored visually after about 3 weeks vs untreated controls
From the text: (§1) Seeds of monocotyledonous and dicotyledonous weed plants and crop plants are placed in plastic or organic planting pots and covered with soil. The compounds of the invention, formulated in the form of wettable powders (WP) or as emulsion concentrates (EC), are then applied to the surface of the covering soil as aqueous suspension or emulsion with addition of 0.5% additive at a water application rate equivalent to 600 l/ha. After the treatment, the pots are placed in a greenhouse and kept under good growth conditions for the trial plants. After about 3 weeks, the effect of the preparations is scored visually in comparison with untreated controls as percentages. For example, 100% activity=the plants have died, 0% activity=like control plants.
(§2) Tables 1a to 19c below show the effects/crop compatibilities of selected compounds of the general formula (I) on various harmful plants at an application rate corresponding to 20 to 320 g/ha, which were obtained by the trial procedure specified above.
(§3) • ALOMY: Alopecurus myosuroides SETVI: Setaria viridis • AVEFA: Avena fatua POLCO: Fallopia convolvulus • AMARE: Amaranthus retroflexus ECHCG: Echinochloa crus-galli • LOLRJ: Lolium rigidum STEME: Stellaria media • VERPE: Veronica persica MATIN: Tripleurospermum inodorum • DIGSA: Digitaria sanguinalis ABUTH: Abutylon threophrasti • TRZAS: Triticum aestivum VIOTR: Viola tricolor • BRSNW: Brassica napus ZEAMX: Zea mays • PHBPU: Ipomoea purpurea GLXMA: Glycine max • ORYSA: Oryza sativa HORMU: Hordeum murinum

DIGSA [1] = assay: as above; assay type: in vivo, Digitaria sanguinalis; settings: 320 g/ha, scored visually after about 3 weeks vs untreated controls
From the text: as §1, §2, §3

DIGSA [2] = assay: Post-emergence herbicidal effect, greenhouse pot test; assay type: in vivo, Digitaria sanguinalis; settings: Digitaria sanguinalis, 504 h, visual rating about 3 weeks after treatment, read-out: Post-emergence effect against DIGSA
Method in brief: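 Weeds sown in sandy loam, greenhouse-grown 2–3 weeks, then sprayed at one-leaf stage with WP or EC formulations in water plus 0.5% additive at 600 l/ha. Rates 20 to 320 g/ha. Visual rating after about 3 weeks versus untreated controls (100% = plants dead, 0% = like control).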

various unwanted plants = assay: Pre-emergence effect against various unwanted plants (PE): comparative test of I-01 with compounds from WO2020/245044 (Tables 40a, 40b) and summary statements; assay type: in vivo
From the text: Seeds of monocotyledonous and dicotyledonous weed plants and crop plants are placed in plastic or organic planting pots and covered with soil. The compounds of the invention, formulated in the form of wettable powders (WP) or as emulsion concentrates (EC), are then applied to the surface of the covering soil as aqueous suspension or emulsion with addition of 0.5% additive at a water application rate equivalent to 600 l/ha. After the treatment, the pots are placed in a greenhouse and kept under good growth conditions for the trial plants. After about 3 weeks, the effect of the preparations is scored visually in comparison with untreated controls as percentages. For example, 100% activity=the plants have died, 0% activity=like control plants. Tables 40a and 40b below show the effects of the inventive compound (I-01) with structurally similar compounds (from WO2020/245044) on various harmful plants at an application rate corresponding to 320 g/ha or less, which have been obtained by the trial procedure specified hereinafter. The inventive compound (I-01) differs here by variance of a significant structural feature from the structurally similar compound with regard to the R^2 radical. Seeds of monocotyledonous and dicotyledonous weed plants and crop plants are placed in plastic or organic planting pots and covered with soil. The compounds of the invention, formulated in the form of wettable powders (WP) or as emulsion concentrates (EC), are then applied to the surface of the covering soil as aqueous suspension or emulsion with addition of 0.5% additive at a water application rate equivalent to 600 l/ha. After the treatment, the pots are placed in a greenhouse and kept under good growth conditions for the trial plants. After about 3 weeks, the effect of the preparations is scored visually in comparison with untreated controls as percentages. For example, 100% activity=the plants have died, 0% activity=like control plants. Effects/crop compatibilities of selected compounds (Table 39) on various harmful plants at an application rate corresponding to 80 to 320 g/ha that have been obtained by the trial procedure specified hereinabove are shown in Tables 40a and 40b below.

Structure (SMILES): COC(=O)C(OC)Oc1nn(-c2ccccc2F)c(-c2ccc(F)nc2)c1Br (racemic) [Example I-04, Methyl (2RS)-{[4-bromo-1-(2-fluorophenyl)-5-(6-fluoropyridin-3-yl)-1H-pyrazol-3-yl]oxy}(methoxy)acetate]
- Pre-emergence effect at 320 g/ha against ABUTH in % (ABUTH): 80%

Structure (SMILES): COC(=O)C(OC)Oc1nn(-c2ncccc2F)c(-c2ccc(F)nc2)c1Br (centres unmarked) [Example I-05]
- Pre-emergence effect at 320 g/ha against DIGSA in % (DIGSA [1]): 90%
- pest or weed control at 80 g/ha (DIGSA [2]; 80 g/ha): 90%
- pest or weed control at 320 g/ha (DIGSA [2]; 320 g/ha): 90%

Structure (SMILES): CCOC(=O)C(OCC)Oc1nn(-c2ccccc2F)c(-c2ccc(F)nc2)c1Br (racemic) [Example I-01, Ethyl (2RS)-{[4-bromo-1-(2-fluorophenyl)-5-(6-fluoropyridin-3-yl)-1H-pyrazol-3-yl]oxy}(ethoxy)acetate]
- Pre-emergence effect, Effect %, ALOMY (various unwanted plants; ALOMY, 320 g/ha, comparative test): 90%
- Pre-emergence effect, Effect %, ECHCG (various unwanted plants; 80 g/ha, comparative test): 70%
- Pre-emergence effect, Effect %, ECHCG (various unwanted plants; 320 g/ha, comparative test): 100%
- Pre-emergence effect, Effect %, LOLRI (various unwanted plants; 80 g/ha, comparative test): 90%
- Pre-emergence effect, Effect %, LOLRI (various unwanted plants; 320 g/ha, comparative test): 100%
- Pre-emergence effect, Effect %, MATIN (various unwanted plants; 80 g/ha, comparative test): 90%
- Pre-emergence effect, Effect %, MATIN (various unwanted plants; 320 g/ha, comparative test): 90%
- Pre-emergence effect, Effect %, POLCO (various unwanted plants; POLCO, 80 g/ha, comparative test): 80%
- Pre-emergence effect, Effect %, SETVI (various unwanted plants; SETVI, 320 g/ha, comparative test): 100%
- herbicidal efficacy by comparison to the structurally similar compounds (Tables 40a and 40b) (various unwanted plants; different harmful plants, 320 g or less per hectare, vs compounds from WO2020/245044): distinctly improved herbicidal efficacy

Source: patent US20240391862A1, “(1,4,5-TRISUBSTITUTED-1H-PYRAZOL-3-YL)OXY-2-ALKOXY ALKYL ACIDS AND THEIR DERIVATIVES, THEIR SALTS AND THEIR USE AS HERBICIDAL AGENTS” (Bayer AKtiengesellschaft, priority 2021, published 2024)
